DBAASP
Converted amounts (≈) assume the structure as drawn.

Experiments:
Assay in all cases: ≥ marks a high value that may be exact or a test limit, other limits are often not marked, values filed in µg/mL are converted to µM
[1] = system: Streptococcus pyogenes ATCC 19615
[2] = system: Leishmania infantum (promastigote)
[3] = system: Escherichia coli ATCC 25922
[4] = system: Legionella feeleii ATCC 35072
[5] = system: Enterococcus faecalis ATCC 29212
[6] = system: Staphylococcus aureus ATCC 25923
[7] = system: Staphylococcus aureus ATCC BAA-44
[8] = system: Legionella longbeachae ATCC 33484
Listeria ivanovii = system: Listeria ivanovii
Saccharomyces cerevisiae = system: Saccharomyces cerevisiae
[9] = system: Legionella pneumophila Paris
[10] = system: Staphylococcus aureus ATCC 43300
[11] = system: Candida parapsilosis ATCC 22019
[12] = system: Acinetobacter baumannii ATCC 19606
[13] = system: Legionella pneumophila ATCC 33155
[14] = system: Salmonella enterica subsp. enterica serovar Enteritidis
[15] = system: Pseudomonas aeruginosa ATCC 27853
[16] = system: Staphylococcus aureus ST1065
[17] = system: Klebsiella pneumoniae ATCC 13883
Escherichia coli ML-35p = system: Escherichia coli ML-35p
[18] = system: Candida albicans ATCC 90028
[19] = system: Escherichia coli K12 MG1655
[20] = system: Staphylococcus aureus 68 HER 1049
[21] = system: Candida albicans ATCC 2002
Escherichia coli IS37# = system: Escherichia coli IS37#
[22] = system: Klebsiella pneumoniae IS59#
[23] = system: Enterobacter cloacae ATCC 13047
[24] = system: Klebsiella pneumoniae ATCC 700603
[25] = system: Pseudomonas aeruginosa CMCCB 1010
Escherichia coli IS117# = system: Escherichia coli IS117#
Shigella dysenteriae = system: Shigella dysenteriae
[26] = system: Pseudomonas aeruginosa IS350#
[27] = system: Staphylococcus aureus IS10#
Escherichia coli IS218# = system: Escherichia coli IS218#

Structure (SMILES): CC[C@H](C)[C@H](NC(=O)CNC(=O)[C@H](CCCCN)NC(=O)[C@H](CC(C)C)NC(=O)[C@@H](N)Cc1ccccc1)C(=O)N[C@H](C(=O)NCC(=O)N[C@@H](CCSC)C(=O)N[C@@H](CC(C)C)C(=O)NCC(=O)N[C@@H](CCCCN)C(=O)N[C@@H](CC(C)C)C(=O)N[C@@H](Cc1ccccc1)C(N)=O)C(C)C [FLKGIVGMLGKLF]
- MIC [1]: 1 µM (≈ 1.42 µg/mL)
- MIC [2]: 10 µM (≈ 14.2 µg/mL)
- MIC [3]: 3 µM (≈ 4.27 µg/mL)
- MIC [4]: 3.12 µM (≈ 4.44 µg/mL)
- MIC [5]: 6 µM (≈ 8.53 µg/mL)
- MIC [6]: 3 µM (≈ 4.27 µg/mL)
- MIC [7]: 3 µM (≈ 4.27 µg/mL)
- MIC [8]: 3.12 µM (≈ 4.44 µg/mL)
- MIC (Listeria ivanovii): 3 µM (≈ 4.27 µg/mL)
- MIC (Saccharomyces cerevisiae): 3 µM (≈ 4.27 µg/mL)
- MIC [9]: 3.12 µM (≈ 4.44 µg/mL)
- MIC [10]: 3 µM (≈ 4.27 µg/mL)
- MIC [11]: 25 µM (≈ 35.5 µg/mL)
- MIC [12]: 3 µM (≈ 4.27 µg/mL)
- MIC [13]: 3.12 µM (≈ 4.44 µg/mL)
- MIC [14]: 6 µM (≈ 8.53 µg/mL)
- MIC [15]: 6 µM (≈ 8.53 µg/mL)
- MIC [16]: 3 µM (≈ 4.27 µg/mL)
- MIC [17]: 3 µM (≈ 4.27 µg/mL)
- MIC (Escherichia coli ML-35p): 3 µM (≈ 4.27 µg/mL)
- MIC [18]: 6 µM (≈ 8.53 µg/mL)

Structure (SMILES): CC[C@H](C)[C@H](NC(=O)CNC(=O)[C@H](CC(C)C)NC(=O)[C@H](Cc1ccccc1)NC(=O)[C@H](CC(C)C)NC(=O)[C@H](CCCCN)NC(=O)[C@H](Cc1c[nH]c2ccccc12)NC(=O)[C@@H](N)CCCCN)C(=O)N[C@@H](CC(C)C)C(=O)N[C@@H](C)C(=O)N[C@H](C(=O)N[C@@H](CC(C)C)C(=O)N[C@@H](CCCCN)C(=O)N[C@H](C(=O)N[C@@H](CC(C)C)C(=O)O)C(C)C)C(C)C [KWKLFLGILAVLKVL]
- MIC [19]: 18.4 µM (≈ 32 µg/mL)
- MIC [20]: 18.4 µM (≈ 32 µg/mL)

Structure (SMILES): C[C@@H](O)[C@@H]1NC(=O)CNC(=O)[C@H](CCCCN)NC(=O)[C@H](Cc2ccccc2)NC(=O)[C@@H](NC(=O)[C@H](Cc2ccccc2)NC(=O)[C@@H](N)CCCN=C(N)N)CSSC[C@@H](C(=O)NCC(=O)O)NC(=O)[C@@H]2CCCN2C1=O [RFCFKGTPCG]
- MIC [21]: 17.9 µM (≈ 20 µg/mL)
- MIC [3]: 8.97 µM (≈ 9.98 µg/mL)
- MIC (Escherichia coli IS37#): ≥ 44.8 µM
- MIC [5]: 17.9 µM (≈ 20 µg/mL)
- MIC [6]: 4.48 µM (≈ 4.99 µg/mL)
- MIC [22]: ≥ 44.8 µM
- MIC [23]: 8.97 µM (≈ 9.98 µg/mL)
- MIC [24]: 17.9 µM (≈ 20 µg/mL)
- MIC [11]: 17.9 µM (≈ 20 µg/mL)
- MIC [25]: ≥ 44.8 µM
- MIC [18]: 17.9 µM (≈ 20 µg/mL)
- MIC (Escherichia coli IS117#): ≥ 44.8 µM
- MIC (Shigella dysenteriae): 17.9 µM (≈ 20 µg/mL)

Structure (SMILES): CC[C@H](C)[C@H](NC(=O)[C@@H](N)C(C)C)C(=O)N1CCC[C@H]1C(=O)N[C@@H](Cc1ccccc1)C(=O)N[C@H](C(=O)N[C@@H](C)C(=O)N[C@@H](CO)C(=O)N[C@H](C(=O)N[C@@H](C)C(=O)N[C@@H](C)C(=O)N[C@@H](CCC(=O)O)C(=O)N[C@@H](CCSC)C(=O)N[C@@H](CCSC)C(=O)N[C@@H](CCC(N)=O)C(=O)N[C@@H](Cc1cnc[nH]1)C(=O)N[C@H](C(=O)N[C@@H](Cc1ccc(O)cc1)C(=O)N[C@H]1CSSC[C@@H](C(=O)O)NC(=O)[C@H](CCCN=C(N)N)NC(=O)[C@H](CCCCN)NC(=O)[C@H](CO)NC(=O)[C@H](C)NC(=O)[C@H](C)NC1=O)C(C)C)C(C)C)C(C)C [VIPFVASVAAEMMQHVYCAASKRC]
- MIC [21]: 1.91 µM (≈ 5 µg/mL)
- MIC [3]: 1.91 µM (≈ 5 µg/mL)
- MIC [26]: 19.1 µM (≈ 50 µg/mL)
- MIC (Escherichia coli IS37#): 19.1 µM (≈ 50 µg/mL)
- MIC [5]: 1.91 µM (≈ 5 µg/mL)
- MIC [6]: 3.83 µM (≈ 9.99 µg/mL)
- MIC [23]: 3.83 µM (≈ 9.99 µg/mL)
- MIC [24]: 3.83 µM (≈ 9.99 µg/mL)
- MIC [27]: 19.1 µM (≈ 50 µg/mL)
- MIC [11]: 7.66 µM (≈ 20 µg/mL)
- MIC [25]: 3.83 µM (≈ 9.99 µg/mL)
- MIC [15]: 7.66 µM (≈ 20 µg/mL)
- MIC [18]: 3.83 µM (≈ 9.99 µg/mL)
- MIC (Escherichia coli IS117#): 7.66 µM (≈ 20 µg/mL)
- MIC (Escherichia coli IS218#): 19.1 µM (≈ 50 µg/mL)
- MIC (Shigella dysenteriae): 3.83 µM (≈ 9.99 µg/mL)
